Laboratory results from patent publication US20140113945A1, “Novel Pyrrole Inhibitors of S-Nitrosoglutathione Reductase as Therapeutic Agents for Liver Toxicity” (priority 2011, published 2014).
Where two headings read alike, the source gives them in different places. Marks after values point to notes of the source that are not given here.

System: acetaminophen (APAP) induced liver toxicity
Details: for mean ALT / mean AST / increase in ALT compared to control saline group / increase in AST compared to control saline group / reduction in ALT compared to APAP only / reduction in AST compared to APAP only: mice; for mean ALT / mean AST: substance IV + APAP 300 mg/kg PO; for increase in ALT compared to control saline group / increase in AST compared to control saline group / reduction in ALT compared to APAP only / reduction in AST compared to APAP only: substance IV after APAP 300 mg/kg PO, 24-hour; for Alkaline phosphatase (ALK) levels: mouse, in vivo

SMILES	mean ALT (24-hours post-APAP)	mean AST (24-hours post-APAP)	mean ALT (72-hours post-APAP)	mean AST (72-hours post-APAP)	mean ALT (6 hours post-APAP)	mean AST (6 hours post-APAP)	increase in ALT compared to control saline group [fold]	increase in AST compared to control saline group [fold]	reduction in ALT compared to APAP only [%]	reduction in AST compared to APAP only [%]	Alkaline phosphatase (ALK) levels
Cc1cc(C(N)=O)ccc1-n1c(CCC(=O)O)ccc1-c1ccc(Cl)cc1O [Compound 41]	4749.4	3783.6	97.6	492.6	3608.0	3741.2	43	29	23	34	did not significantly differ from normal controls
N[C@@H](CCC(=O)N[C@@H](CSN=O)C(=O)NCC(=O)O)C(=O)O [GSNO, S-nitrosoglutathione]	1454.3	518.0*	31.8*	55.0*	571.8*	484.5*	~5	~4	76	91	did not significantly differ from normal controls
